This assay relates to HuH-7 replicon cells 5–15 and 9–13 (HCV replication). The assay is described as follows: Inhibition of viral replication in HuH-7 replicon cells (HCV RNA / GAPDH RNA by multiplex RT-PCR). Type of assay: cell-based. Conditions: Hepatitis C virus, 72 h; inhibiting 50% of replication; HuH-7 replicon cells, 3 days; read-out: IC50. On the procedure:
Compounds were evaluated for inhibition of viral replication according to published procedures (Bartenschlager, R., et. al., Science, 1999, 285, 110) with modifications as follows.
HuH-7 replicon cells 5–15 and 9–13 were cultured in Dulbecco's minimal essential medium (DMEM) containing high glucose and supplemented with 10% fetal bovine serum (FBS), L-glutamine (2 mM), non-essential amino acids (1×), Penicillin (100 IU/mL)/Streptomycin (100 μg/mL) and G418 (Geneticin, 750 μg/mL). Unless otherwise specified, all media components were obtained from Invitrogen. Replicon cell line stocks were maintained as sub-confluent monolayers by passaging every Monday (1:6 split) and Thursday (1:10 split) and incubated at 37° C. with 5% CO2. Tissue culture plates (96-well white clear bottom plates, Corning #3610) were seeded at 7×10^3 cells/well and incubated for 24 hours prior to addition of the compounds.
Compounds in dry powder form were diluted in DMSO (30 mM stock). Serial dilutions of each Compound in DMSO (10 mM–0.1 mM) were performed in a 96-well polypropylene plate using a microtiter format. Culture media (200 μl) was added to the corresponding wells of a sterile 96-well round bottom plate. Diluted compound (2 μl) was added to the corresponding wells of the medial plate (final compound concentrations: 100 μM–1 μM). Culture media was removed from the corresponding wells of the 96-well plate containing the replicon cells and 150 μl diluted compound added. Media containing 1% DMSO and a serially diluted IFN were included on each plate. The cultures were incubated at 37° C. with 5% CO2 for 3 days. Cultures were observed visually for cytotoxicity or compound precipitation prior to RNA extraction described below.
Total cellular RNA was extracted by spin column technology (RNeasy 96, Qiagen) using the vacuum methodology according to the manufacturer's protocol. In brief, culture media was removed and 100 μl RLT lysis buffer containing 0.14M β-mercaptoethanol (β-ME) was added to each well. The plate was kept flat on the laboratory bench and shaken vigorously to lyse the cells. An equal volume of 70% ETOH was mixed with the lysate and added to the corresponding columns of the RNeasy 96-well plate. Vacuum was applied to draw the lysate through the filters. After ventilating the plate, buffer RW1 (1 mL) was drawn through each column. The waste tray was emptied and the filters washed twice with buffer RPE (1 mL/wash). After ventilating the tray, the RNeasy plate was removed and the bottom of the plate struck several times on a stack of paper towels to remove excess wash buffer. The waste tray was removed from the vacuum apparatus and the RNeasy 96-well plate dried by applying vacuum for 10 minutes. Total cellular RNA was eluted from the columns with two washes of 60 μl RNase-free water.
Relative quantitative multiplex RT-PCR was performed using TaqMan (TM) EZ RT Core Reagent kit (Perkin Elmer) according to the manufacturer's protocol (PE Applied Biosystems User Bulletin #2). Primer 061 (NT 61–82) and 139 (NT 139–158) amplifying a short region in the 5′ untranslated region of the HCV genome were utilized at 300 nM final concentrations. Probe #3 (NT 97–119) labeled with FAM reporter dye was utilized at 200 nM final concentration. Pre-developed human GAPDH primers and probe labeled with VIC reporter dye were obtained from PE Applied Biosystems (# 4310884E) and used according to the manufacturer's protocol. TM RT-PCR master mix was prepared containing the above primers/probe for both target RNA. Total cellular RNA (2 μl) was added to the reaction tubes of a 96-well optical plate that corresponded to the wells of the replicon culture plate. The final volume of each reaction was 50 μl. A standard curve was prepared from ten-fold serial dilutions of total cellular RNA extracated from 10^6 replicon cells and eluted in 30 μl RNase-free water. […]
Background: A replicon is a self-replicating genome or part of one, used to study replication in cells.
One may read the IC50 as the concentration needed to halve the response being measured. As for `COc1cccc(CC(=O)N/N=C/c2cccnc2OS(=O)(=O)c2ccc(C)cc2)c1` [Compound 181, 3-((E)-{2-[2-(3-methoxyphenyl)acetyl]hydrazono}methyl)-pyridin-2-yl 4-methylbenzenesulfonate], the half-inhibitory concentration (IC50) lay in the range of 5 to 50 µM.
With `COc1cc(CC(=O)N/N=C/c2ccccc2OS(=O)(=O)c2ccc(C(F)(F)F)cc2)cc(OC)c1` [Compound 50, 2-((E)-{2-[2-(3,5-dimethoxyphenyl)acetyl]hydrazono}methyl)-phenyl 4-(trifluoromethyl)benzenesulfonate] the figure was < 5 µM; with `CC(C)(C)c1ccc(S(=O)(=O)Oc2ccccc2/C=N/NC(=O)Cc2ccccc2)cc1` [Compound 121, 2-{(E)-[2-(2-phenylacetyl)hydrazono]methyl}phenyl 4-tert-butylbenzenesulfonate], < 5 µM; with `O=C(N/N=C/c1ccccc1OS(=O)(=O)c1ccc(C(F)(F)F)cc1)c1cccc2ccccc12` [Compound 71, 2-{(E)-[2-(1-naphthoyl)hydrazono]methyl}phenyl 4-(trifluoromethyl)benzenesulfonate], < 5 µM.
The value for `O=C(Cc1ccccc1F)N/N=C/c1ccccc1OS(=O)(=O)c1ccc(C(F)(F)F)cc1` [Compound 41, 2-((E)-{2-[2-(2-fluorophenyl)acetyl]hydrazono}methyl)-phenyl 4-(trifluoromethyl)benzenesulfonate] was < 5 µM; that for `O=C(CCc1ccccc1)N/N=C/c1ccccc1OS(=O)(=O)c1ccc(C(F)(F)F)cc1` [Compound 2, 2-{(E)-[2-(3-phenylpropanoyl)-hydrazono]methyl}phenyl 4-(trifluoromethyl)benzenesulfonate] was < 5 µM.
The value for `O=C(Cc1ccccc1)N/N=C/c1ccccc1OS(=O)(=O)c1ccc(Cl)cc1` [Compound 117, 2-{(E)-[2-(2-phenylacetyl)hydrazono]methyl}phenyl 4-chlorobenzenesulfonate] was < 5 µM; that for `Cc1ccc(COc2ccccc2/C=N/NC(=O)Cc2ccccc2)cc1` [Compound 235, N′-((1E)-{2-[(4-methylbenzyl)oxy]phenyl}methylene)-2-phenylacetohydrazide] was > 50 µM; that for `O=C(Cc1ccccc1)N/N=C/c1ccccc1OS(=O)(=O)c1ccc(F)cc1F` [Compound 133, 2-{(E)-[2-(2-phenylacetyl)hydrazono]methyl}phenyl2,4-difluorobenzenesulfonate] was > 50 µM.
Take `COc1cccc(CC(=O)N/N=C/c2ncccc2OS(=O)(=O)c2ccc(C(F)(F)F)cc2)c1` [Compound 214, 2-((E)-{2-[2-(3-methoxyphenyl)acetyl]hydrazono}methyl)-pyridin-3-yl 4-(trifluoromethyl)benzenesulfonate]: the IC50 lay in the range of 5 to 50 µM.
With `COc1cccc(CC(=O)N/N=C/c2cccc(C)c2OS(=O)(=O)c2ccc(C(F)(F)F)cc2)c1` [Compound 168, 2-((E)-{[(3-methoxyphenyl)acetyl]hydrazono}methyl)-6-methylphenyl 4-(trifluoromethyl)benzenesulfonate] the figure was < 5 µM; with `O=C(Cc1cccc(OC(F)(F)F)c1)N/N=C/c1ccccc1OS(=O)(=O)c1ccc(C(F)(F)F)cc1` [Compound 21, 2-[(E)-(2-{2-[3-(trifluoromethoxy)phenyl]acetyl}hydrazono)-methyl]phenyl 4-(trifluoromethyl)benzenesulfonate], < 5 µM.
For `COc1cccc(CC(=O)N/N=C/c2cccc(F)c2OS(=O)(=O)c2ccc(C)cc2)c1` [Compound 159], the IC50 lay in the range of 5 to 50 µM.
With `CN(C)c1cccc(OCC(=O)N/N=C/c2ccccc2OS(=O)(=O)c2ccc(C(F)(F)F)cc2)c1` [Compound 86, 2-[(E)-(2-{2-[3-(dimethylamino)phenoxy]acetyl}hydrazono)-methyl]phenyl 4-(trifluoromethyl)benzenesulfonate] the figure was > 50 µM; with `O=C(Cc1ccccn1)N/N=C/c1ccccc1OS(=O)(=O)c1ccc(C(F)(F)F)cc1` [Compound 29, 2-{(E)-[2-(2-pyridin-2-ylacetyl)hydrazono]methyl}phenyl 4-(trifluoromethyl)benzenesulfonate], < 5 µM; with `Cc1ccc(S(=O)(=O)Cc2ccccc2/C=N/NC(=O)Cc2ccccc2)cc1` [Compound 232, N′-[(1E)-(2-{[(4-methylphenyl)sulfonyl]methyl}phenyl)-methylene]-2-phenylacetohydrazide], < 5 µM.
As for `COc1cccc(CC(=O)N/N=C/c2ccccc2OS(=O)(=O)c2ccc(Oc3ccc(F)cc3)cc2)c1` [Compound 202, 2-((E)-{2-[2-(3-methoxyphenyl)acetyl]hydrazono}methyl)-phenyl 4-(4-fluorophenoxy)benzenesulfonate], the IC50 was > 50 µM.
With `O=C(N/N=C/c1ccccc1OS(=O)(=O)c1ccc(C(F)(F)F)cc1)c1cc(Cl)ccc1Cl` [Compound 72, 2-{(E)-[2-(2,5-dichlorobenzoyl)hydrazono]methyl}phenyl4-(trifluoromethyl)benzenesulfonate] the figure was < 5 µM; with `O=C(Cc1ccc(F)c(Cl)c1)N/N=C/c1ccccc1OS(=O)(=O)c1ccc(C(F)(F)F)cc1` [Compound 9, 2-((E)-{2-[2-(3-chloro-4-fluorophenyl)acetyl]hydrazono}methyl)-phenyl 4-(trifluoromethyl)benzenesulfonate], < 5 µM.
The value for `O=C(CC1CCCCC1)N/N=C/c1ccccc1OS(=O)(=O)c1ccc(C(F)(F)F)cc1` [Compound 45, 2-{(E)-[2-(2-cyclohexylacetyl)hydrazono]methyl}phenyl4-(trifluoromethyl)benzenesulfonate] was < 5 µM; that for `O=C(Cc1ccc(C(F)(F)F)c(F)c1)N/N=C/c1ccccc1OS(=O)(=O)c1ccc(C(F)(F)F)cc1` [Compound 14, 2-[(E)-(2-{2-[3-fluoro-4-(trifluoromethyl)phenyl]acetyl}hydrazono)-methyl]phenyl 4-(trifluoromethyl)benzenesulfonate] was < 5 µM; that for `O=C(CCc1cccnc1)N/N=C/c1ccccc1OS(=O)(=O)c1ccc(C(F)(F)F)cc1` [Compound 30, 2-{(E)-[2-(3-pyridin-3-ylpropanoyl)hydrazono]methyl}phenyl 4-(trifluoromethyl)benzenesulfonate] was < 5 µM.
The value for `COc1cccc(CC(=O)N/N=C/c2ccccc2OCc2ccc(C)cc2)c1` [Compound 236, 2-(3-methoxyphenyl)-N′-((1E)-{2-[(4-methylbenzyl)oxy]phenyl}methylene)-acetohydrazide] was > 50 µM; that for `COc1cccc(CC(=O)N/N=C/c2ccccc2OS(=O)(=O)c2cc(Cl)sc2Cl)c1` [Compound 187, 2-((E)-{2-[2-(3-methoxyphenyl)acetyl]hydrazono}methyl)-phenyl 2,5-dichlorothiophene-3-sulfonate] was < 5 µM; that for `COc1ccc(S(=O)(=O)Oc2ccccc2/C=N/NC(=O)Cc2ccccc2)cc1` [Compound 131, 2-{(E)-[2-(2-phenylacetyl)hydrazono]methyl}phenyl 4-methoxybenzenesulfonate] was < 5 µM.
Turning to `O=C(Cc1ccccc1)N/N=C/c1ccccc1OS(=O)(=O)c1cccc(F)c1` [Compound 113, 2-{(E)-[2-(2-phenylacetyl)hydrazono]methyl}phenyl 3-fluorobenzenesulfonate], the IC50 is > 50 µM.
